Data: US11802111B2, “Cyclobutyl amide monoacylglycerol lipase modulators” (Janssen Pharmaceutica NV, priority 2020, dated 2023)

Target: human MGL from HeLa cells (Homo sapiens (Human), UniProt Q99685)
Assay: MGL in vitro activity assay ([glycerol-1,3-3H]-oleoyl glycerol hydrolysis, activated carbon filtration)
Assay type: biochemical
Details: 300 nM [Glycerol-1,3-3H]-oleoyl glycerol, one hour
Method in brief: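 Endogenous human MGL in HeLa cells/homogenates incubated 1 h with test compounds and 300 nM [glycerol-1,3-3H]-oleoyl glycerol. Released 3H-glycerol passing an activated carbon filter counted as activity; screening at 10 μM compound, top IC50 concentration set empirically.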

Chain of human MGL from HeLa cells (Q99685 whole entry): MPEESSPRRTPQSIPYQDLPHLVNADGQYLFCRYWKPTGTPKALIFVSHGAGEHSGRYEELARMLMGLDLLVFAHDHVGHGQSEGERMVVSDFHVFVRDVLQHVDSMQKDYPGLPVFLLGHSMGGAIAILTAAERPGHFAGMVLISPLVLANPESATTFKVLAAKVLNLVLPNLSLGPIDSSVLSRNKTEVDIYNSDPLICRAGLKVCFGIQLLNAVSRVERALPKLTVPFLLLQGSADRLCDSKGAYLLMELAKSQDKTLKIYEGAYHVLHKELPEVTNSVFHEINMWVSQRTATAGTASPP

Compound | IC50
Cc1cccc(CC2CC3(C2)CN(C(=O)[C@H]2C[C@@](C)(O)C2)C3)c1C [Example 156, (6-(2,3-Dimethylbenzyl)-2-azaspiro[3.3]heptan-2-yl)((1s,3s)-3-hydroxy-3-methylcyclobutyl)methanone] | 11 nM
COc1cc(CC2CC3(C2)CN(C(=O)[C@H]2C[C@@](C)(O)C2)C3)ccc1C(F)(F)F [Example 276, ((1s,3s)-3-Hydroxy-3-methylcyclobutyl)(6-(3-methoxy-4-(trifluoromethyl)benzyl)-2-azaspiro[3.3]heptan-2-yl)methanone] | 1 nM
Cc1ccc(CC2CC3(C2)CN(C(=O)[C@H]2C[C@@](C)(O)C2)C3)nc1C(F)(F)F [Example 277, ((1s,3s)-3-Hydroxy-3-methylcyclobutyl)(6-((5-methyl-6-(trifluoromethyl)pyridin-2-yl)methyl)-2-azaspiro[3.3]heptan-2-yl)methanone] | 18 nM
Cc1cc(OC2CCC3(CC2)CN(C(=O)[C@H]2C[C@@](C)(O)C2)C3)ccc1C(F)(F)F [Example 239, ((1s,3s)-3-Hydroxy-3-methylcyclobutyl)(7-(3-methyl-4-(trifluoromethyl)phenoxy)-2-azaspiro[3.5]nonan-2-yl)methanone] | 0.4 nM
C[C@]1(O)C[C@@H](C(=O)N2CC3(CCC(Cc4cccc(C(F)F)c4)CC3)C2)C1 [Example 163, (7-(3-(Difluoromethyl)benzyl)-2-azaspiro[3.5]nonan-2-yl)((1s,3s)-3-hydroxy-3-methylcyclobutyl)methanone] | 61 nM
C[C@]1(O)C[C@@H](C(=O)N2CC3(CCC(Oc4cccc(C(F)(F)F)n4)CC3)C2)C1 [Example 421, ((1s,3s)-3-Hydroxy-3-methylcyclobutyl)(7-((6-(trifluoromethyl)pyridin-2-yl)oxy)-2-azaspiro[3.5]nonan-2-yl)methanone] | 84 nM
C[C@]1(O)C[C@@H](C(=O)N2CC3(CCC(c4cccc(C(F)(F)F)c4)C3)C2)C1 (mixture of isomers) [Example 61, (rac)-((1s,3s)-3-Hydroxy-3-methylcyclobutyl)(6-(3-(trifluoromethyl)phenyl)-2-azaspiro[3.4]octan-2-yl)methanone] | 29 nM
C[C@]1(O)C[C@@H](C(=O)N2CC3(CCC(Oc4cc(C(F)(F)F)ccn4)CC3)C2)C1 [Example 418, ((1s,3s)-3-Hydroxy-3-methylcyclobutyl)(7-((4-(trifluoromethyl)pyridin-2-yl)oxy)-2-azaspiro[3.5]nonan-2-yl)methanone] | 180 nM
Cc1cc2ccn(C)c2nc1OC1CCC2(CC1)CN(C(=O)[C@H]1C[C@@](C)(O)C1)C2 [Example 473, (7-((1,5-Dimethyl-1H-pyrrolo[2,3-b]pyridin-6-yl)oxy)-2-azaspiro[3.5]nonan-2-yl)((1s,3s)-3-hydroxy-3-methylcyclobutyl)methanone] | 1.2 nM
Cc1ccc(CC2CC3(C2)CN(C(=O)[C@H]2C[C@@](C)(O)C2)C3)c(F)c1 [Example 230, (6-(2-Fluoro-4-methylbenzyl)-2-azaspiro[3.3]heptan-2-yl)((1s,3s)-3-hydroxy-3-methylcyclobutyl)methanone] | 6.4 nM
Cc1cc(C2CCC3(C2)CN(C(=O)[C@H]2C[C@@](C)(O)C2)C3)ccc1OC(F)F (mixture of isomers) [Example 72, (rac)-(6-(4-(Difluoromethoxy)-3-methylphenyl)-2-azaspiro[3.4]octan-2-yl)((1s,3s)-3-hydroxy-3-methylcyclobutyl)methanone] | 4.6 nM
C[C@]1(O)C[C@@H](C(=O)N2CC3(CCC(c4ccc5ccccc5n4)CC3)C2)C1 [Example 124, ((1s,3s)-3-Hydroxy-3-methylcyclobutyl)(7-(quinolin-2-yl)-2-azaspiro[3.5]nonan-2-yl)methanone] | 227 nM
Cc1ccccc1CC1CC2(C1)CN(C(=O)[C@H]1C[C@@](C)(O)C1)C2 [Example 184, ((1s,3s)-3-Hydroxy-3-methylcyclobutyl)(6-(2-methylbenzyl)-2-azaspiro[3.3]heptan-2-yl)methanone] | 14 nM
CCc1cnc(OC2CCC3(CC2)CN(C(=O)[C@H]2C[C@@](C)(O)C2)C3)c(F)c1 [Example 433, (7-((5-Ethyl-3-fluoropyridin-2-yl)oxy)-2-azaspiro[3.5]nonan-2-yl)((1s,3s)-3-hydroxy-3-methylcyclobutyl)methanone] | 14 nM
Cc1ccc(C2CC3(C2)CN(C(=O)[C@H]2C[C@@](C)(O)C2)C3)cc1C1CC1 [Example 27, (6-(3-Cyclopropyl-4-methylphenyl)-2-azaspiro[3.3]heptan-2-yl)((1s,3s)-3-hydroxy-3-methylcyclobutyl)methanone] | 47 nM
Cc1ccccc1CC1CCC2(C1)CN(C(=O)[C@H]1C[C@@](C)(O)C1)C2 (mixture of isomers) [Example 175, (rac)-((1s,3s)-3-Hydroxy-3-methylcyclobutyl)(6-(2-methylbenzyl)-2-azaspiro[3.4]octan-2-yl)methanone] | 43 nM
C[C@]1(O)C[C@@H](C(=O)N2CC3(CC[C@H](c4cccc(OC(F)(F)F)c4)C3)C2)C1 (stereo in doubt) [Example 42, ((1s,3*R)-3-Hydroxy-3-methylcyclobutyl)((*S)-6-(3-(trifluoromethoxy)phenyl)-2-azaspiro[3.4]octan-2-yl)methanone] | 22 nM

Compound | IC50
CC(C)c1ccc(C2CCC3(CC2)CN(C(=O)[C@H]2C[C@@](C)(O)C2)C3)cc1 [Example 130, ((1s,3s)-3-Hydroxy-3-methylcyclobutyl)(7-(4-isopropylphenyl)-2-azaspiro[3.5]nonan-2-yl)methanone] | 17 nM
Cc1cccc(C2CCC3(CC2)CN(C(=O)[C@H]2C[C@@](C)(O)C2)C3)c1F [Example 355, (7-(2-Fluoro-3-methylphenyl)-2-azaspiro[3.5]nonan-2-yl)((1s,3s)-3-hydroxy-3-methylcyclobutyl)methanone] | 39 nM
COc1cc(Cl)cnc1OC1CCC2(CC1)CN(C(=O)[C@H]1C[C@@](C)(O)C1)C2 [Example 463, (7-((5-Chloro-3-methoxypyridin-2-yl)oxy)-2-azaspiro[3.5]nonan-2-yl)((1s,3s)-3-hydroxy-3-methylcyclobutyl)methanone] | 9.7 nM
Cc1c(CC2CC3(C2)CN(C(=O)[C@H]2C[C@@](C)(O)C2)C3)cccc1C1CC1 [Example 154, (6-(3-Cyclopropyl-2-methylbenzyl)-2-azaspiro[3.3]heptan-2-yl)((1s,3s)-3-hydroxy-3-methylcyclobutyl)methanone] | 1.7 nM
C[C@]1(O)C[C@@H](C(=O)N2CC3(CCC(c4ccc5c(c4)OCC5)C3)C2)C1 (mixture of isomers) [Example 323, (rac)-(6-(2,3-Dihydrobenzofuran-6-yl)-2-azaspiro[3.4]octan-2-yl)((1s,3s)-3-hydroxy-3-methylcyclobutyl)methanone] | 166 nM
Cc1cc(C(F)(F)F)ccc1CC1CCC2(C1)CN(C(=O)[C@H]1C[C@@](C)(O)C1)C2 (mixture of isomers) [Example 203, (rac)-((1s,3s)-3-Hydroxy-3-methylcyclobutyl)(6-(2-methyl-4-(trifluoromethyl)benzyl)-2-azaspiro[3.4]octan-2-yl)methanone] | 7.8 nM
Cn1ccc2ccc(C3CCC4(CC3)CN(C(=O)[C@H]3C[C@@](C)(O)C3)C4)nc21 [Example 384, ((1s,3s)-3-Hydroxy-3-methylcyclobutyl)(7-(1-methyl-1H-pyrrolo[2,3-b]pyridin-6-yl)-2-azaspiro[3.5]nonan-2-yl)methanone] | 97 nM
C[C@]1(O)C[C@@H](C(=O)N2CC3(CC[C@@H](c4cccc(C5CC5)c4)C3)C2)C1 (stereo in doubt) [Example 59, ((*R)-6-(3-Cyclopropylphenyl)-2-azaspiro[3.4]octan-2-yl)((1s,3*S)-3-hydroxy-3-methylcyclobutyl)methanone] | 37 nM
COc1cccc(CC2CC3(C2)CN(C(=O)[C@H]2C[C@@](C)(O)C2)C3)c1 [Example 197, ((1s,3s)-3-Hydroxy-3-methylcyclobutyl)(6-(3-methoxybenzyl)-2-azaspiro[3.3]heptan-2-yl)methanone] | 64 nM
C[C@]1(O)C[C@@H](C(=O)N2CC3(CC(Cc4ccc5cnn(CC(F)(F)F)c5c4)C3)C2)C1 [Example 307, ((1s,3s)-3-Hydroxy-3-methylcyclobutyl)(6-((1-(2,2,2-trifluoroethyl)-1H-indazol-6-yl)methyl)-2-azaspiro[3.3]heptan-2-yl)methanone] | 431 nM
Cn1ccc2ccc(CC3CCC4(CC3)CN(C(=O)[C@H]3C[C@@](C)(O)C3)C4)nc21 [Example 401, ((1s,3s)-3-Hydroxy-3-methylcyclobutyl)(7-((1-methyl-1H-pyrrolo[2,3-b]pyridin-6-yl)methyl)-2-azaspiro[3.5]nonan-2-yl)methanone] | 66 nM
Cn1cc(CC2CC3(C2)CN(C(=O)[C@H]2C[C@@](C)(O)C2)C3)c(C(F)(F)F)n1 [Example 225, ((1s,3s)-3-Hydroxy-3-methylcyclobutyl)(6-((1-methyl-3-(trifluoromethyl)-1H-pyrazol-4-yl)methyl)-2-azaspiro[3.3]heptan-2-yl)methanone] | 119 nM
C[C@]1(O)C[C@@H](C(=O)N2CC3(CCC(c4ccc(OC(F)(F)F)cc4)C3)C2)C1 (mixture of isomers) [Example 52, (rac)-((1s,3s)-3-Hydroxy-3-methylcyclobutyl)(6-(4-(trifluoromethoxy)phenyl)-2-azaspiro[3.4]octan-2-yl)methanone] | 16 nM
Cc1ccccc1CC1CCC2(CC1)CN(C(=O)[C@H]1C[C@@](C)(O)C1)C2 [Example 236, ((1s,3s)-3-Hydroxy-3-methylcyclobutyl)(7-(2-methylbenzyl)-2-azaspiro[3.5]nonan-2-yl)methanone] | 49 nM
C[C@]1(O)C[C@@H](C(=O)N2CC3(CC(Cc4ccc(C(F)F)cc4)C3)C2)C1 [Example 232, (6-(4-(Difluoromethyl)benzyl)-2-azaspiro[3.3]heptan-2-yl)((1s,3s)-3-hydroxy-3-methylcyclobutyl)methanone] | 11 nM
CCc1ccccc1CC1CC2(C1)CN(C(=O)[C@H]1C[C@@](C)(O)C1)C2 [Example 158, (6-(2-Ethylbenzyl)-2-azaspiro[3.3]heptan-2-yl)((1s,3s)-3-hydroxy-3-methylcyclobutyl)methanone] | 9.2 nM
